Test results from US12109184B2, “Personalized methods of treating cancer” (CANCER RESEARCH TECHNOLOGY LIMITED, priority 2020, dated 2024).
Entries after “also recorded” stand apart in the source; their conditions may differ.

Key:
Format in all cases: cell-based
[1] = system: HCT116, SW480 and MDA-MB-468 cells; assay: Cell counting during cysteine starvation, starvation-resistant cell lines; settings: for cysteine starvation sensitivity on polyamine supplementation: polyamine 20 μM in medium without cysteine
Procedure: (§1) The base medium formulation contained 0.2 mM L-histidine, 0.4 mM L-isoleucine, 0.4 mM L-leucine, 0.4 mM L-lysine, 0.2 mM L-phenylalanine, 0.4 mM L-threonine, 0.08 mM L-tryptophan, 0.4 mM L-valine, 0.2 mM L-arginine, 2 mM L-glutamine, 0.2 mM L-tyrosine, 0.4 mM L-alanine, 0.3 mM L-proline, 0.15 mM L-glutamic acid, 0.1 mM L-aspartic acid, 0.2 mM L-asparagine, and 0.4 mM glycine.
(§2) DAPI-stained cell nuclei were detected via microscopy.
(§3) AMD1 inhibitor sardomozide/SAM486A, GPX4 inhibitor RSL3, and CSE inhibitor beta-cyano-L-alanine were used.
(§4) For experiments using spermine oxidase (SMOX) and polyamine oxidase (PAOX) inhibitors or MTOB, cells were pre-treated with stated concentrations for 16 hours in complete medium. After pre-treatment, cells were washed in PBS, and treatment was continued in complete or cysteine-free medium for stated times. After treatment was finished, cells were fixed and stained as described above. For experiments using MTA, polyamines, GPX4 and CSE inhibitors, treatment started at the same time as cysteine starvation. For experiments involving hypoxic conditions, cells were seeded in normoxic conditions and allowed to adhere for 24 hours before control and cysteine starvation medium was added and cells were immediately transferred either to a humidified cell culture incubator set to 37° C. in 20% O2 (normoxia), or a hypoxia chamber set to 37° C. in 1% O2 (hypoxia) for the stated times. Cells were fixed immediately and stained as described above.

[2] = system: MTAP-expressing HCT116 cells; assay: Cell counting during cysteine starvation, MTAP-expressing HCT116; settings: SMOX inhibitor, PAOX inhibitor or MTOB supplementation
Source text: (§5) [NT] Successfully transfected cells were selected with puromycin and grown as clonal colonies. Clones were selected based initially on MTA efflux measured by liquid chromatography mass spectrometry (LC-MS). Clones with greatest MTA efflux were selected, and methylthioadenosine phosphorylase knockout (MTAP-KO) was then confirmed by western blot. MTAP-KO HCT116 cells were transfected with pCMV-Hygro-MTAP and pCMV-Hygro-negative control vector, selected using hygromycin B, and grown as clonal colonies. Clones were selected based initially on MTA efflux measured by LC-MS. Clones with low MTA efflux were selected, then MTAP re-expression was confirmed by western blot. […] DAPI-stained cell nuclei were detected via microscopy. For experiments using spermine oxidase (SMOX) and polyamine oxidase (PAOX) inhibitors or MTOB, cells were pre-treated with stated concentrations for 16 hours in complete medium. After pre-treatment, cells were washed in PBS, and treatment was continued in complete or cysteine-free medium for stated times. After treatment was finished, cells were fixed and stained as described above. For experiments using MTA, polyamines, GPX4 and CSE inhibitors, treatment started at the same time as cysteine starvation. For experiments involving hypoxic conditions, cells were seeded in normoxic conditions and allowed to adhere for 24 hours before control and cysteine starvation medium was added and cells were immediately transferred either to a humidified cell culture incubator set to 37° C. in 20% O2 (normoxia), or a hypoxia chamber set to 37° C. in 1% O2 (hypoxia) for the stated times. Cells were fixed immediately and stained as described above.

[3] = system: MTAP-deleted HCT116 cells; assay: Cell counting during cysteine starvation, MTAP-deleted HCT116
Source text: as §5, with “microscopy. […]” for “microscopy.”

[4] = system: MDA-MB-231, PANC-1, and MIAPaCa-2 cells; assay: CellROX assay on live cells, starvation-sensitive cell lines; settings: −Cys, 16 h timepoint
Procedure: (§6) Cells were seeded as described above. Live cells were stained with Hoechst 33342 nuclear stain for 20 min. The medium was removed, and cells were stained in 100 μl medium containing CellTracker™ Green CMFDA Dye and Hoechst stain for 40 min. The cells were then washed with PBS, and 300 μl of the relevant experimental medium was added for 1 hour. Then, CellROX® Deep Red was spiked into the medium, and the cells were incubated for 40 min. The medium was removed, the cells were washed with PBS, and new relevant experimental medium including CellROX was added. The cells were imaged using an Operetta automated microscope platform set to 37° C. in 5% CO2 every hour for 16-24 hours. I

[5] = system: MDA-MB-231, MIAPaCa-2 and PANC-1 cells; assay: Cell counting during cysteine starvation, starvation-sensitive cell lines
Procedure: as §1, §2, §3, §4

[6] = system: breast, colorectal and pancreatic cancer cell lines; assay: Cell counting in complete or cysteine-free medium, cell lines not given; settings: AMD1 inhibitor or MTOB supplementation
Procedure: as §1, §2, §3, §4

[7] = system: MDA-MB-231, PANC-1, and MIAPaCa-2 cells; assay: LC-MS analysis with labelled methionine (polyamine and TsP labelling); settings: 20 μM sardomozide or 0.1 mM MTOB
Procedure: For experiments using labelled methionine, the same basic protocol was used as described for the steady state metabolite measurements described above. Experimental media were formulated lacking methionine or serine (described above) and supplemented with the stated concentrations of ^13C5^15N1-methionine, ^13C3^15N1-serine or ^34S1-methionine. Metabolites were extracted as described above.
Prepared samples were analyzed on an LC-MS platform consisting of an Accela™ 600 LC system and an Exactive™ mass spectrometer. A Sequant® ZIC®-HILIC column (4.6 mm×150 mm, 3.5 μm) was used to separate the metabolites with the mobile phase using A=0.1% (v/v) formic acid in water and B=0.1% (v/v) formic acid in acetonitrile. A gradient program starting at 20% of A and linearly increasing to 80% at 30 min was used followed by washing (92% of A for 5 mins) and re-equilibration (20% of A for 10 min) steps. The total run time of the method was 45 min. The LC stream was desolvated and ionized in the HESI probe. The Exactive™ mass spectrometer was operated in full scan mode over a mass range of 70-1,200 m/z at a resolution of 50,000 with polarity switching. The LC-MS raw data was converted into mzML files by using ProteoWizard and imported to MZMine 2.10 for peak extraction and sample alignment. An in-house database including all possible ^13C and ^15N isotopic m/z values of the relevant metabolites was used for the assignment of LCMS signals. Finally the peak areas were used for comparative quantification.

[8] = system: cysteine starved cells; assay: CellROX assay on live cells supplemented with polyamines; settings: polyamine 20 μM in medium without cysteine
Procedure: as §6

SMILES: C=C=CCNCCCCNCC=C=C [MDL 72527]
- cell survival and growth under polyamine treatment concurrent with cysteine starvation ([1]; SMOX and PAOX inhibitors with spermidine or spermine, −Cys): restored HCT116, SW480, and MDA-MB-468 cell survival and growth
- advantage during cysteine starvation ([1]; SMOX or PAOX inhibitor, 16 h pre-treatment then −Cys): little or no additional advantage
- impact on cell survival during cysteine starvation [2]: little impact
- cell survival during cysteine starvation ([3]; SMOX inhibitor, PAOX inhibitor or MTOB supplementation): rescued cell survival
- ROS levels (CellROX staining intensity) ([4]; 50 μM SMOX inhibitor): allowed cells to maintain lower ROS levels
- cell death during cysteine starvation ([5]; SMOX inhibitor 50 μM or PAOX inhibitor 10, 40, 80 μM, 16 h pre-treatment then −Cys): prevented cell death

SMILES: N=C(N)N/N=C1\CCc2c(C(=N)N)cccc21 [sardomozide]
- cell survival in response to cysteine starvation ([3]; AMD1 inhibitor): restored cell survival
- duration of rescue from cysteine starvation [6]: temporary
- levels of TsP intermediates [7]: did not appreciably increase
- polyamine synthesis (dc-SAM and polyamine labelling) [7]: marked inhibition of polyamine synthesis
- ROS levels (CellROX staining intensity) ([4]; 20 μM AMD1 inhibitor): diminished ROS levels
- cell death in response to cysteine starvation ([5]; AMD1 inhibitor pre-treatment 16 h): prevented cell death

SMILES: NCCCCNCCCN [spermidine]
- cysteine starvation sensitivity on polyamine supplementation [1]: dramatic impact; also recorded: dramatically sensitized cells to cysteine starvation
- ROS levels (CellROX deep red) [8]: rapid increase in ROS levels; also recorded: increased cellular ROS levels

SMILES: NCCCNCCCCNCCCN [spermine]
- cysteine starvation sensitivity on polyamine supplementation [1]: dramatic impact; also recorded: dramatically sensitized cells to cysteine starvation
- ROS levels (CellROX deep red) [8]: rapid increase in ROS levels; also recorded: increased cellular ROS levels
